Source: patent US6448027B1, “Method for specific measurement of acid phosphatase derived from osteoclasts” (FALCO biosystems Ltd., priority 1999, dated 2002)

Columns and labels:
[1] = test system: tartrate-resistant fluoride-sensitive acid phosphatases other than Band 5b; experiment: TrFsACP activity of CM-Sepharose fractions of serum with heparin or polybrene in the reaction buffer; assay type: biochemical, human; conditions: CM-Sepharose fractions of children's serum; FIG. 1
Experimental: Using CM-Sepharose, Band 5a and Band 5b tartrate-resistant acid phosphatase were separated and collected.
(§1) The CM-Sepharose was packed into glass tubing (0.9 cm i.d.; length, 60 cm) and washed with acetate buffer (10 mmol/L, pH 5.0). The serum sample (children's serum, 5 ml) was adjusted to pH 5.0 by adding acetic acid and the coagulated proteins were removed by centrifugation at 20,000×g for 15 minutes. The supernatant fraction was passed through the column at 0.5 ml/minute. The enzyme, which was retained on the column, was then eluted with a liner gradient of sodium chloride: 0 to 1 mol/L in elution buffer (299 ml, acetate buffer, 10 mmol/L, pH 5.0). The fractionated serum was subjected to the method described in the above general method to measure tartrate-resistant fluoride-sensitive acid phosphatase activity (the value obtained by subtracting the value obtained with measurement solution 2 from the value obtained with measurement solution 1). Acid phosphatase activity was measured similarly by using measurement solution added polybrene which was antagonist of heparin instead of heparin.
When polybrene was added to the reaction buffer, at least four peaks of tartrate-resistant fluoride-sensitive acid phosphatase activity were observed (FIG. 1, I, II, III and IV). But only one peak (IV) was observed when heparin was added to the reaction buffer. […]

bone extract = experiment: Effect of heparin on bone extract acid phosphatase activity; assay type: biochemical; conditions: FIG. 3; bovine tibia extract
Experimental: Bone extract was prepared according to the method described in Nakanishi, M., Yoh, K., Uchida, K., Maruo, S., Matuoka, A., Clin. Chem., 1998, 44, 221-225. Bovine tibia after removal of soft tissue was cut into small cubes. The marrow and blood were removed, pulverized and homogenized in a solution containing Triton x-100, potassium chloride, phenylmethylsulfonyl fluoride, benzamidine and aminocaproic acid. The extract was collected by centrifugation at 10,000×g for 20 minutes at 4° C. and stored at −80° C. until use.

[2] = molecular target: T1, Band 5a tartrate-resistant acid phosphatase (Homo sapiens, UniProt P13686); experiment: Effect of heparin on Band 5a tartrate-resistant acid phosphatase (CM-Sepharose peak III); assay type: biochemical
T1 construct: These fractions containing peak III and IV were used as Band 5a and Band 5b tartrate-resistant acid phosphatase, respectively; from tissue; host or cells: children's serum, CM-Sepharose cation-exchange fraction (peak III)
T1 sequence (P13686 22-325): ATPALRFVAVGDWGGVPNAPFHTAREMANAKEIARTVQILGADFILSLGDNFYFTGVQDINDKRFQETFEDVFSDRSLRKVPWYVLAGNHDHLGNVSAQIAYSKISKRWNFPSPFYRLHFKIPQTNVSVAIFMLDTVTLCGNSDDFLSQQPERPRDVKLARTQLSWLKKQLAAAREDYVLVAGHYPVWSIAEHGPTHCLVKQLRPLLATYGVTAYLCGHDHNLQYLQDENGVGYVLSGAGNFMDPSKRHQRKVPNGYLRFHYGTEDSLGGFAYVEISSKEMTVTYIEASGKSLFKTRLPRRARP
Experimental: as §1
These fractions containing peak III and IV were used as Band 5a and Band 5b tartrate-resistant acid phosphatase, respectively, in the following Examples. […]
Tartrate-resistant fluoride-sensitive acid phosphatase activity was measured using Band 5a and 5b tartrate-resistant acid phosphatases separated by CM-Sepharose to determine the effect of pH on activity. […]

serum = experiment: Effect of heparin on serum acid phosphatase activity; assay type: biochemical, human; conditions: FIG. 3
Experimental: Blood samples collected from 516 healthy subjects aged 5 to 79 years (210 males and 306 females) were coagulated at room temperature for 2 to 4 hours and centrifuged at 1,000×g at room temperature for 10 minutes. Serum thus separated was transferred into 1.5 ml tubes and stored at −80° C. until use.

[3] = test system: Band 5b tartrate-resistant acid phosphatase; experiment: Effects of other materials on Band 5b TrACP activity in serum of healthy subjects; assay type: biochemical, human; conditions: for Band 5b TrACP activity (%): control activity taken as 100%, serum of healthy subjects; for Effect of addition on Band 5b tartrate-resistant acid phosphatase activity: summary in words of Table 1, 1-10 mmol/L
Experimental: (1) Formulation of Compositions
(a) A Composition Comprising Tartaric Acid and Heparin (Reaction Buffer Solution 1)
(b) A composition comprising tartaric acid, heparin and fluoride (reaction buffer solution 2)
(2) Measurement (an Example Using Conventional Automatic Analyzer, Cobas® Fara, Baxter Ltd.)
(§2) To a cuvette is added 150 µl of reaction buffer solution 1 or reaction buffer solution 2 and, after 20 seconds, 15 µl of sample (serum) is added. The mixture is incubated at 37° C. for 5 minutes and then 60 µl of the substrate solution is added to start the enzyme reaction (the reaction mixture is 15 times as much as the amount of the sample (=(150 μ1+15 μ1+60 μ1)/15 μ1). The change in absorbance at 340 nm is monitored at 20 seconds intervals for 5 minutes. The amount of change in absorbance per one minute (the amount of change in absorbance in the enzyme reaction per unit time) is obtained from a linear part of the change in absorbance. The amount of change in absorbance per one minute in blank is obtained by the same procedure as the above except for adding physical saline or purified water instead of the sample.
The activity of osteoclast-derived acid phosphatase located at Band 5b is obtained by subtracting the activity value obtained by using the composition comprising tartaric acid, heparin and fluoride of the reaction buffer solution 2 from the activity value obtained by using the composition comprising tartaric acid and the inhibitor to acid phosphatases located at Band 5 other than Band 5b (in Examples, heparin is used) of the reaction buffer solution 1. […] The concentration, formulation, amount and the like of the above composition are adjusted according to a particular kind of automatic analyzer and measurement (kind and concentration of the substrate and the like) used.
(§3) Activity (U/L)=[(amount of change in absorbance per unit time in enzyme reaction−amount of change in absorbance in blank)×liquid amount on enzyme reaction×10^6]÷[sample amount×molar absorbance coefficient×cell optical path length]

[4] = test system: Band 5b tartrate-resistant acid phosphatase; conditions: read-out: Km value for DCAPP of Band 5b tartrate-resistant acid phosphatase activity; substrate DCAPP
Experimental: as §2, with “sample. […]” for “sample.”
as §3

[5] = compound 1 mmol/L in reaction buffer solution
[6] = compound 5 mmol/L in reaction buffer solution
[7] = compound 10 mmol/L in reaction buffer solution

Row | Compound | Effect of heparin on bone extract (bone extract) | Effect of heparin on Band 5a tartrate-resistant acid phosphatase ([2]; FIG. 3) | Band 5a tartrate-resistant acid phosphatase activity after addition of heparin ([2]; pH 6.6, 0.05% heparin in reaction mixture, FIG. 4) | Effect of heparin on serum (serum) | Band 5b TrACP activity (%) [3, 5] [%] | Band 5b TrACP activity (%) [3, 6] [%] | Band 5b TrACP activity (%) [3, 7] [%] | Effect of addition on Band 5b tartrate-resistant acid phosphatase activity [3] | Effect of heparin on tartrate-resistant fluoride-sensitive acid phosphatases other than Band 5b [1] | Km [4] [mM]
1 | O[C@H](CS)[C@H](O)CS (racemic) [Dithiothreitol] | – | – | – | – | 93 | 69 | 57 | inhibited enzyme activity | – | –
2 | CC(=O)c1cc(Cl)c(OP(=O)(O)O)c(Cl)c1 [DCAPP, 2,6-dichloro-4-acetylphenyl phosphate] | – | – | – | – | – | – | – | – | – | 4.7

Further lines, with some results ahead:

Row | Effect of heparin on bone extract (bone extract) | Effect of heparin on Band 5a tartrate-resistant acid phosphatase ([2]; FIG. 3) | Band 5a tartrate-resistant acid phosphatase activity after addition of heparin ([2]; pH 6.6, 0.05% heparin in reaction mixture, FIG. 4) | Effect of heparin on serum (serum) | Band 5b TrACP activity (%) [3, 5] [%] | Band 5b TrACP activity (%) [3, 6] [%] | Band 5b TrACP activity (%) [3, 7] [%] | Effect of addition on Band 5b tartrate-resistant acid phosphatase activity [3] | Compound | Effect of heparin on tartrate-resistant fluoride-sensitive acid phosphatases other than Band 5b [1] | Km [4] [mM]
3 | slightly inhibited | significantly inhibited | zero level | slightly inhibited | – | – | – | – | heparin | inhibits | –
4 | – | – | – | – | 97 | 103 | 103 | no effect | O=C1O[C@H]([C@@H](O)CO)C(O)=C1O [Ascorbic acid] | – | –
5 | – | – | – | – | 95 | 96 | 93 | no effect | O=C(O)CN(CCN(CC(=O)O)CC(=O)O)CC(=O)O [EDTA] | – | –
